Patent US10023922B2, “Reporter of genomic methylation and uses thereof” (Whitehead Institute for Biomedical Research, priority 2015, dated 2018)

Tested on: Gapdh and Dazl reporter constructs
Test: In vitro methylation of reporter plasmids, checked by bisulfite conversion, PCR amplification and sequencing
Assay type: biochemical
Details: FIGS. 2A and 2B
Excerpt: Conversely, we were interested to assess whether a methylated and silent donor Snrpn promoter can be reactivated by means of demethylation acquired in vivo. For this we used the CpG methyltransferase M.SssI to in vitro methylate both Gapdh and Dazl reporter constructs.
Bisulfite conversion of DNA was established using the EpiTect Bisulfite Kit (Qiagen) following the manufacturer's instructions. The resulting modified DNA was amplified by first round of nested PCR, following a second round using loci specific PCR primers (see complete list of primers below). The first round of nested PCR was done as follows: 94° C. for 4 min; 55° C. for 2 min; 72° C. for 2 min; Repeat steps 1-3 1×; 94° C. for 1 min; 55° C. for 2 min; 72° C. for 2 min; Repeat steps 5-7 35×; 72° C. for 5 min; Hold 12° C. The second round of PCR was as followed: 95° C. for 4 min; 94° C. for 1 min; 55° C. for 2 min; 72° C. for 2 min; Repeat steps 2-4 35×; 72° C. for 5 min; Hold 12° C. The resulting amplified products were gel-purified, subcloned into A pCR2.1-TOPO-TA cloning vector (Life Technologies), and sequenced.

M.SssI: CpG methyltransferase used to in vitro methylate reporter constructs
methylation of CGI and Snrpn promoter regions of the treated plasmids: complete hypermethylation
